Key:
CDK9 = target: T1, CDK9 (Homo sapiens, UniProt P50750); assay: CDK protein degradation activity (Western blotting), CDK9; assay type: cell-based; conditions: MDA-MB-231 cells, 16 hours, Western blot
T1 construct: endogenous in cells; host or cells: MDA-MB-231
Protocol: (§1) In order to evaluate the CDK protein degradation activity of the compounds according to the present invention, the following experiment was conducted.
(§2) MDA-MB-231 cells were seeded at 5×10^5 cells per well in a 6-well plate. The next day, the compounds were treated in each well to achieve final concentrations of 100 nM, 1 μM, and 10 μM. For the control group, an equal amount of DMSO was treated in the well as the compound. After 16 hours of treatment, cells were collected, and cell lysates were prepared using Triton X-100 lysis buffer (50 mM HEPES, pH 7.5, 40 mM NaCl, 1% Triton X-100, 1 mM EDTA, 1 mM EGTA, 10 mM pyrophosphate, 10 mM β-glycerophosphate, 50 mM NaF, 1 mM NaVO4, protease inhibitor). Cell lysates were quantified and separated by size using sodium dodecyl sulfate-polyacrylamide gel electrophoresis (SDS-PAGE). Western blotting was then performed using antibodies that recognize CDK2, CDK9, and tubulin, respectively. The results obtained by Western blotting were quantitatively analyzed using the ImageJ program, and representative images according to the experimental results are shown in FIG. 1.

CDK2 = target: T2, CDK2 (Homo sapiens, UniProt P24941); assay: CDK protein degradation activity (Western blotting), CDK2; assay type: cell-based; conditions: MDA-MB-231 cells, 16 hours, Western blot
T2 construct: endogenous in cells; host or cells: MDA-MB-231
Protocol: as §1, §2

T1 sequence (P50750 whole entry): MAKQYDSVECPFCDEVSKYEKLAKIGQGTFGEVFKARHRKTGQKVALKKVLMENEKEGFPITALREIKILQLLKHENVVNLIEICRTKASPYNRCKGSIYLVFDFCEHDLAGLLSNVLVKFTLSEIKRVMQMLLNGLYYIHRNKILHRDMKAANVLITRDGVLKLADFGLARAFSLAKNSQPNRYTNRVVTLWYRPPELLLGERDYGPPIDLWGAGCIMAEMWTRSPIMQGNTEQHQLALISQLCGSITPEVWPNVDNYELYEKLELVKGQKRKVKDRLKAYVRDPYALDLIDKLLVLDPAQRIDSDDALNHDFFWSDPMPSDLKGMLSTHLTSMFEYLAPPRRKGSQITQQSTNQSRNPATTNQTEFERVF

Cc1cccc(C(=O)NC2CC(n3cnc4c(NCc5cccc(N6CCN(CC7CCN(C(=O)COc8ccc9c(c8)C(=O)N([C@H]8CCC(=O)NC8=O)C9=O)CC7)CC6)c5)ncnc43)C2)n1 (stereo partly drawn) [Compound 133, N-((1s,3s)-3-(6-((3-(4-((1-(2-((2-(2,6-dioxopiperidin-3-yl)-1,3-dioxoisoindolin-5-yl)oxy)acetyl)piperidin-4-yl)methyl)piperazin-1-yl)benzyl)amino)-9H-purin-9-yl)cyclobutyl)-6-methylpicolinamide]
Enzyme degradation CDK9 (% remaining) @ 0.1 μM (CDK9): 80%
Enzyme degradation CDK9 (% remaining) @ 1 μM (CDK9): 0%
Enzyme degradation CDK9 (% remaining) @ 10 μM (CDK9): 0%
Enzyme degradation CDK2 (% remaining) @ 0.1 μM (CDK2): 90%
Enzyme degradation CDK2 (% remaining) @ 1 μM (CDK2): 70%
Enzyme degradation CDK2 (% remaining) @ 10 μM (CDK2): 80%

O=C1CC[C@H](N2C(=O)c3ccc(OCC(=O)N4CCC(CN5CCC(CNc6ncnc7c6ncn7C6CC(NC(=O)c7c(Cl)cccc7Cl)C6)CC5)CC4)cc3C2=O)C(=O)N1 (stereo partly drawn) [Compound 169, 2,6-dichloro-N-((1s,3s)-3-(6-(((1-((1-(2-((2-(2,6-dioxopiperidin-3-yl)-1,3-dioxoisoindolin-5-yl)oxy)acetyl)piperidin-4-yl)methyl)piperidin-4-yl)methyl)amino)-9H-purin-9-yl)cyclobutyl)benzamide]
Enzyme degradation CDK9 (% remaining) @ 0.1 μM (CDK9): 10%
Enzyme degradation CDK9 (% remaining) @ 1 μM (CDK9): 0%
Enzyme degradation CDK9 (% remaining) @ 10 μM (CDK9): 0%
Enzyme degradation CDK2 (% remaining) @ 0.1 μM (CDK2): 80%
Enzyme degradation CDK2 (% remaining) @ 1 μM (CDK2): 70%
Enzyme degradation CDK2 (% remaining) @ 10 μM (CDK2): 70%

O=C1CC[C@H](N2C(=O)c3cccc(NCC(=O)N4CCC(CN5CCC(CNc6ncnc7c6ncn7C6CC(NC(=O)Cc7ccccc7)C6)CC5)CC4)c3C2=O)C(=O)N1 (stereo partly drawn) [Compound 184, N-((1s,3s)-3-(6-(((1-((1-((2-(2,6-dioxopiperidin-3-yl)-1,3-dioxoisoindolin-4-yl)glycyl)piperidin-4-yl)methyl)piperidin-4-yl)methyl)amino)-9H-purin-9-yl)cyclobutyl)-2-phenylacetamide]
Enzyme degradation CDK9 (% remaining) @ 0.1 μM (CDK9): 0/0/0%
Enzyme degradation CDK9 (% remaining) @ 1 μM (CDK9): 0/0/0%
Enzyme degradation CDK9 (% remaining) @ 10 μM (CDK9): 0/0/0%
Enzyme degradation CDK2 (% remaining) @ 0.1 μM (CDK2): 70%
Enzyme degradation CDK2 (% remaining) @ 1 μM (CDK2): 70%
Enzyme degradation CDK2 (% remaining) @ 10 μM (CDK2): 50%

COc1ccc(C(=O)N2CC(CN3CCC4(CC3)CC(N3CCN(c5ccc(Nc6ncnc7c6ncn7[C@H]6C[C@@H](NC(=O)Cc7ccccc7)C6)cc5)CC3)C4)C2)cc1N1CCC(=O)NC1=O [Compound 280, N-((1s,3s)-3-(6-((4-(4-(7-((1-(3-(2,4-dioxotetrahydropyrimidin-1(2H)-yl)-4-methoxybenzoyl)azetidin-3-yl)methyl)-7-azaspiro[3.5]nonan-2-yl)piperazin-1-yl)phenyl)amino)-9H-purin-9-yl)cyclobutyl)-2-phenylacetamide]
Enzyme degradation CDK9 (% remaining) @ 0.1 μM (CDK9): 50%
Enzyme degradation CDK9 (% remaining) @ 1 μM (CDK9): 10%
Enzyme degradation CDK9 (% remaining) @ 10 μM (CDK9): 10%
Enzyme degradation CDK2 (% remaining) @ 0.1 μM (CDK2): 50%
Enzyme degradation CDK2 (% remaining) @ 1 μM (CDK2): 30%
Enzyme degradation CDK2 (% remaining) @ 10 μM (CDK2): 30%

O=C1CC[C@H](N2C(=O)c3ccc(N4CCC(C(=O)N5CCC(CN6CCC(CCNc7ncnc8c7ncn8[C@H]7C[C@@H](NC(=O)Cc8ccccc8)C7)CC6)CC5)CC4)cc3C2=O)C(=O)N1 [Compound 421, N-((1s,3s)-3-(6-((2-(1-((1-(1-(2-(2,6-dioxopiperidin-3-yl)-1,3-dioxoisoindolin-5-yl)piperidin-4-carbonyl)piperidin-4-yl)methyl)piperidin-4-yl)ethyl)amino)-9H-purin-9-yl)cyclobutyl)-2-phenylacetamide]
Enzyme degradation CDK9 (% remaining) @ 0.1 μM (CDK9): 0/0/0%
Enzyme degradation CDK9 (% remaining) @ 1 μM (CDK9): 0/0/0%
Enzyme degradation CDK9 (% remaining) @ 10 μM (CDK9): 0/0/0%
Enzyme degradation CDK2 (% remaining) @ 0.1 μM (CDK2): 60/60/60%
Enzyme degradation CDK2 (% remaining) @ 1 μM (CDK2): 60/60/60%
Enzyme degradation CDK2 (% remaining) @ 10 μM (CDK2): 60/60/60%

Cc1cccc(C(=O)N[C@H]2C[C@@H](n3cnc4c(Nc5ccc(N6CCN(C7CC8(CCN(C(=O)C9CCN(c%10cc%11c(cc%10F)C(=O)N([C@H]%10CCC(=O)NC%10=O)C%11=O)CC9)CC8)C7)CC6)cc5)ncnc43)C2)n1 [Compound 465, N-((1s,3s)-3-(6-((4-(4-(7-(1-(2-(2,6-dioxopiperidin-3-yl)-6-fluoro-1,3-dioxoisoindolin-5-yl)piperidin-4-carbonyl)-7-azaspiro[3.5]nonan-2-yl)piperazin-1-yl)phenyl)amino)-9H-purin-9-yl)cyclobutyl)-6-methylpicolinamide]
Enzyme degradation CDK9 (% remaining) @ 0.1 μM (CDK9): 0/0/0%
Enzyme degradation CDK9 (% remaining) @ 1 μM (CDK9): 0/0/0%
Enzyme degradation CDK9 (% remaining) @ 10 μM (CDK9): 0/0/0%
Enzyme degradation CDK2 (% remaining) @ 0.1 μM (CDK2): 50/50/50%
Enzyme degradation CDK2 (% remaining) @ 1 μM (CDK2): 50/50/50%
Enzyme degradation CDK2 (% remaining) @ 10 μM (CDK2): 50/50/50%

Cc1cccc(C(=O)NC2CC(n3cnc4c(NCc5cccc(N6CCN(C(=O)COc7cccc8c7C(=O)N([C@H]7CCC(=O)NC7=O)C8=O)CC6)c5)ncnc43)C2)n1 (stereo partly drawn) [Compound 128, N-((1s,3s)-3-(6-((3-(4-(2-((2-(2,6-dioxopiperidin-3-yl)-1,3-dioxoisoindolin-4-yl)oxy)acetyl)piperazin-1-yl)benzyl)amino)-9H-purin-9-yl)cyclobutyl)-6-methylpicolinamide]
Enzyme degradation CDK9 (% remaining) @ 0.1 μM (CDK9): 90%
Enzyme degradation CDK9 (% remaining) @ 1 μM (CDK9): 60%
Enzyme degradation CDK9 (% remaining) @ 10 μM (CDK9): 100%
Enzyme degradation CDK2 (% remaining) @ 0.1 μM (CDK2): 90%
Enzyme degradation CDK2 (% remaining) @ 1 μM (CDK2): 50%
Enzyme degradation CDK2 (% remaining) @ 10 μM (CDK2): 100%

Cc1cccc(C(=O)NC2CC(n3cnc4c(NC5CCN(CCC6CCN(C(=O)COc7cccc8c7C(=O)N([C@H]7CCC(=O)NC7=O)C8=O)CC6)CC5)ncnc43)C2)n1 (stereo partly drawn) [Compound 32, N-((1s,3s)-3-(6-((1-(2-(1-(2-((2-(2,6-dioxopiperidin-3-yl)-1,3-dioxoisoindolin-4-yl)oxy)acetyl)piperidin-4-yl)ethyl)piperidin-4-yl)amino)-9H-purin-9-yl)cyclobutyl)-6-methylpicolinamide]
Enzyme degradation CDK9 (% remaining) @ 0.1 μM (CDK9): 50%
Enzyme degradation CDK9 (% remaining) @ 1 μM (CDK9): 0%
Enzyme degradation CDK9 (% remaining) @ 10 μM (CDK9): 0%
Enzyme degradation CDK2 (% remaining) @ 0.1 μM (CDK2): 60%
Enzyme degradation CDK2 (% remaining) @ 1 μM (CDK2): 20%
Enzyme degradation CDK2 (% remaining) @ 10 μM (CDK2): 20%

O=C1CC[C@H](N2C(=O)c3ccc(N4CCC(CN5CCN(c6ccc(Nc7ncnc8c7ncn8C7CC(NC(=O)c8cccc(C(F)(F)F)n8)C7)cc6)CC5)CC4)cc3C2=O)C(=O)N1 (stereo partly drawn) [Compound 393, N-((1s,3s)-3-(6-((4-(4-((1-(2-(2,6-dioxopiperidin-3-yl)-1,3-dioxoisoindolin-5-yl)piperidin-4-yl)methyl)piperazin-1-yl)phenyl)amino)-9H-purin-9-yl)cyclobutyl)-6-(trifluoromethyl)picolinamide]
Enzyme degradation CDK9 (% remaining) @ 0.1 μM (CDK9): 0/0/0%
Enzyme degradation CDK9 (% remaining) @ 1 μM (CDK9): 0/0/0%
Enzyme degradation CDK9 (% remaining) @ 10 μM (CDK9): 0/0/0%
Enzyme degradation CDK2 (% remaining) @ 0.1 μM (CDK2): 10/10/10%
Enzyme degradation CDK2 (% remaining) @ 1 μM (CDK2): 10/10/10%
Enzyme degradation CDK2 (% remaining) @ 10 μM (CDK2): 10/10/10%

O=C1CC[C@H](N2C(=O)c3cc(F)c(N4CCN(C5CC6(CCN(c7ccc(Nc8ncnc9c8ncn9[C@H]8C[C@@H](NC(=O)Cc9ccccc9)C8)cc7)CC6)C5)CC4)cc3C2=O)C(=O)N1 [Compound 336, N-((1s,3s)-3-(6-((4-(2-(4-(2-(2,6-dioxopiperidin-3-yl)-6-fluoro-1,3-dioxoisoindolin-5-yl)piperazin-1-yl)-7-azaspiro[3.5]nonan-7-yl)phenyl)amino)-9H-purin-9-yl)cyclobutyl)-2-phenylacetamide]
Enzyme degradation CDK9 (% remaining) @ 0.1 μM (CDK9): 100%
Enzyme degradation CDK9 (% remaining) @ 1 μM (CDK9): 0%
Enzyme degradation CDK9 (% remaining) @ 10 μM (CDK9): 0%
Enzyme degradation CDK2 (% remaining) @ 0.1 μM (CDK2): 100%
Enzyme degradation CDK2 (% remaining) @ 1 μM (CDK2): 0%
Enzyme degradation CDK2 (% remaining) @ 10 μM (CDK2): 0%

— patent US20260125382A1, “COMPOUNDS FOR INHIBITING OR DEGRADING CDK2 AND/OR CDK9 AND MEDICINAL USE THEREOF” (KOREA RESEARCH INSTITUTE OF CHEMICAL TECHNOLOGY, priority 2022, published 2026)
